Data on four compounds can be found in patent publication US20230183239A1, “ECTONUCLEOTIDE PYROPHOSPHATASE-PHOSPHODIESTERASE 1 (ENPP-1) INHIBITORS AND USES THEREOF” (AbbVie Inc., priority 2017, published 2023).

The term Ki denotes the dissociation constant of the complex between target and ligand, obtained from inhibition or displacement. Broadly, the inhibition is the share of the control response that was lost under treatment.

In experiment [1] the target is T1, ENPP1 (Homo sapiens, UniProt P22413).
T1 sequence (P22413 1-925): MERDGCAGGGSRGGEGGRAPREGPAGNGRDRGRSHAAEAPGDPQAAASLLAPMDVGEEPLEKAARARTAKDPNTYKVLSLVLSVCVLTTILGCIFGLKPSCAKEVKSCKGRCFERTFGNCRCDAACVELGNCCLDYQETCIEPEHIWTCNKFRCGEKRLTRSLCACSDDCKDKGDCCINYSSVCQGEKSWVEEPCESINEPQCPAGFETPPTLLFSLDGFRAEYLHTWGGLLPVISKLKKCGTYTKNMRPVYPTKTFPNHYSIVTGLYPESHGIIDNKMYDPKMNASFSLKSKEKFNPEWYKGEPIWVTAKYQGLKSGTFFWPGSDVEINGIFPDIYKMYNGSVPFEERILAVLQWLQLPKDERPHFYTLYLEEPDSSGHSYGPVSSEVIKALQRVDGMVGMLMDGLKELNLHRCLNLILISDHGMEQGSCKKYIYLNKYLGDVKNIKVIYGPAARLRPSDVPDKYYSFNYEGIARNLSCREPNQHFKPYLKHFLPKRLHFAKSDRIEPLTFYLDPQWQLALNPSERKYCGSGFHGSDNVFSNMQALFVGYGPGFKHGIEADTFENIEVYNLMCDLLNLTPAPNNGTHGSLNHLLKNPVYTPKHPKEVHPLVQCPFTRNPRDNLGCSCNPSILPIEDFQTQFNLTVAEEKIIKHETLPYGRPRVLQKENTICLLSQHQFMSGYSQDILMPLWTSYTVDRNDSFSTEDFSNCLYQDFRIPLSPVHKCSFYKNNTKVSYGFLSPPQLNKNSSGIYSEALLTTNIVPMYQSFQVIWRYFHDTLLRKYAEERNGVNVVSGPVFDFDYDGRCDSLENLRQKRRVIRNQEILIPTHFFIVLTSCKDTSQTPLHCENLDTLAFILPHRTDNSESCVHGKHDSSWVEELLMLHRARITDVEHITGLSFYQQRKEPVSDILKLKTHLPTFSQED
Put plainly: ENPP1 enzyme assay with AMP-pNP substrate (hydrolysis of ATP analog). Format: biochemical. A digest of the protocol: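 Human recombinant ENPP1 (60 ng/well) with 300 µM AMP-pNP in 50 mM Tris-HCl pH 8.5, 250 mM NaCl, 0.5 mM CaCl2, 1 µM ZnCl2, 0.1% DMSO, 20 min at 37 °C.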

The target in experiment [2] is T1, ENPP1. Description: Indirect quantitation of 2',3'-cGAMP hydrolysis (AMP-Glo Assay kit). It is filed as biochemical.
In experiment [3] the target is T1, ENPP1. Description: Substrate selectivity ratio, inhibition of cGAMP hydrolysis versus ATP hydrolysis. It is filed as biochemical. As to conditions: ratio Ki AMP-pNP / Ki cGAMP. The method, then: The selectivity ratios for inhibition of cGAMP hydrolysis versus ATP hydrolysis were then calculated as follows: […]
The test system of a further experiment is IFN β gene transcription. Put plainly: IFNβ mRNA in cGAMP-stimulated human foreskin fibroblasts (HFF-1). Format: cell-based. As to conditions: cGAMP-stimulated human foreskin fibroblast cells (HFF-1). The method, then: Human Foreskin Fibroblasts
The cell line was sourced from ATCC (Cat# SCRC-1041). Cells were cultured in 15% fetal bovine serum-containing growth medium. They were seeded in a 48 well plate @ 100,000 per well (300 µL), and incubated for 1 hour at 37° C., 5% CO2. 100 µl of compound (0.05 µM to 5 µM final concentrations) was added 30 min prior to addition of cGAMP (12.5 µM & 25 µM final concentrations). The plate was incubated for 3 hrs at 37° C., 5% CO2. Cells were washed with PBS and 250 µl of RLT reagent (provided in the RNA isolation kit (RNeasy Mini kit, Qiagen Cat # 74106). was added to each well. RNA was isolated using this kit as per the given protocol. RNA was converted to cDNA using a Bio-Rad cDNA conversion kit (iScript® cDNA synthesis kit, Bio-Rad Cat #170-8891). IFN βgene transcription was quantitated using SYBR green dye in an RT-PCR instrument. The methods and protocol were the same as for PBMCs, except that Interferon mRNA levels were normalized to GAPDH mRNA.

The target of experiment [4] is T1, ENPP1. Put plainly: ENPP1 enzyme assay with cGAMP substrate (AMP-Glo). It is filed as biochemical. Set-up: purchased R&D Systems. As to conditions: 1 µM compound; cGAMP substrate; read-out: cGAMP: % Inhibition at 1 µM.
A further experiment deals with IFNβ gene transcription. It is filed as cell-based, human. As to conditions: 3, 6, and 19 hrs exposure; VACV-70 stimulated PBMCs.
The mark [5] stands for this setting: AMP-pNP substrate (ATP analog), Ki from IC50 by Cheng-Prusoff, read-out: ENPP1 Inhibition _AMP-pNP: Ki.
[6] abbreviates: cGAMP substrate, Ki from IC50 by Cheng-Prusoff, read-out: ENPP1 Inhibition -cGAMP: Ki.

With `COc1cc2ncnc(-c3ccc4c(c3)CN(S(N)(=O)=O)CC4)c2cc1OC` [Example 32, 7-(6,7-dimethoxyquinazolin-4-yl)-3,4-dihydroisoquinoline-2(1H)-sulfonamide], the Ki at ENPP1 [1] (setting [5]) and at ENPP1 [2] (setting [6]) was less than 100 nM throughout. Besides, the “Substrate Selectivity: Ki_AMP-pNP/Ki_cGAMP” value at ENPP1 [3] is reported as 24.3. Besides, in the experiment on IFN β gene transcription, the “transcription of IFNβ” value was “enhances transcription of IFNβ”. Moreover, at ENPP1 [4], the inhibition at 1 µM was more than 75%.
Regarding `COc1ccc2c(Oc3ccc(NS(N)(=O)=O)cc3)ccnc2c1` [Example 54, N-(4-((7-methoxyquinolin-4-yl)oxy)phenyl)sulfamide], the Ki was 100 to 1000 nM at ENPP1 [1] and less than 100 nM on ENPP1 [2]. Besides, the “transcription of IFNβ” value in the experiment on IFNβ gene transcription is listed as “enhances transcription of IFNβ”.
`COc1cc2ncc(C#N)c(N3CCC4(CC3)CCN(S(N)(=O)=O)C4)c2cc1F` [Example 57, 8-(3-cyano-6-fluoro-7-methoxyquinolin-4-yl)-2,8-diazaspiro[4.5]decane-2-sulfonamide]: the Ki on ENPP1 [1] (setting [5]) and on ENPP1 [2] (setting [6]) was less than 100 nM each time. On ENPP1 [3], the “Substrate Selectivity: Ki_AMP-pNP/Ki_cGAMP” value amounted to 24.7. The “transcription of IFNβ” value in the experiment with IFN β gene transcription is recorded as “enhances .transcription of IFNβ”.
Regarding `COc1ccc2c(Oc3ccc(S(N)(=O)=O)cc3)ccnc2c1` [Example 58, 4-((7-methoxyquinolin-4-yl)oxy)benzenesulfonamide], the “transcription of IFNβ” value in the experiment on IFNβ gene transcription is reported as “enhances transcription of IFNβ”.
